The assay has as its target T1, recombinant human GPR52 (Homo sapiens, UniProt Q9Y2T5).
T1 construct: expressed in transfected cells
Briefly: TR-FRET cAMP assay (LANCE Ultra cAMP Kit), GPR52 activity. The assay is classed as cell-based. The settings on record: Flp-In-CHO cells stably expressing recombinant human GPR52; cAMP production, normalized to the positive control. How it is done: TR-FRET cAMP assays were performed using commercially available assay kits (LANCE™ Ultra cAMP Kit). Controls and compounds were solubilized in DMSO using ½ log dilution to generate duplicate 10-point dose response curves in 384-well polypropylene compound plates. Sixty nanoliters of the diluted compounds were transferred into 384-well NBS assay plates and further diluted to 1× with the addition of 2000 cells per well. Flp-In™—CHO cells that stably express recombinant human GPR52.
Cells were harvested with cell stripper and resuspended in Stimulation Buffer (5 mM HEPES, 0.1% bovine serum albumin (BSA), 0.5 mM IBMX, pH 7.4). After thirty minutes incubation at room temperature, detection reagents were added to each well. Plates were then incubated for 30 minutes at room temperature. The LANCE™ Ultra cAMP assay uses time-resolved fluorescence resonance energy transfer (TR-FRET) to detect cAMVP production; this signal was quantified using a Pherastar multi-mode plate reader.
Dose-response curves were generated from the fluorescence counts normalized to the positive control. E EC50 values were obtained using a nonlinear regression curve-fitting program.
For orientation: Time-resolved FRET reads energy transfer from a long-lived donor to a nearby acceptor.

As a reminder, the pEC50 is the EC50 on a negative log10 scale, so that one unit is a factor of ten.

pEC50: −log10 of the molar value.

T1 sequence (Q9Y2T5 whole entry): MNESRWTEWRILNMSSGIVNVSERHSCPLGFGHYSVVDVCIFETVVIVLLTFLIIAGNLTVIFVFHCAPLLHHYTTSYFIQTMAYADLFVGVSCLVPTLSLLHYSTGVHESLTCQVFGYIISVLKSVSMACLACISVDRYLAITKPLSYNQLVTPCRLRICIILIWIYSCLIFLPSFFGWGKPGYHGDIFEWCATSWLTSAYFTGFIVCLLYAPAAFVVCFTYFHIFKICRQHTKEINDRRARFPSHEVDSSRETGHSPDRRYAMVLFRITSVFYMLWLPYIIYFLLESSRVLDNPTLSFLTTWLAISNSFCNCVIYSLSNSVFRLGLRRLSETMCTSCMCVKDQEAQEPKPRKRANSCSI

Regarding `Cc1cc(-c2cncc(COc3ccc(C#N)c(F)c3)c2)ccc1C(N)=O` [Example 91, 4-[5-(4-cyano-3-fluorophenoxymethyl)pyridin-3-yl]-2-methylbenzamide], the pEC50 is less than 6.00.

With `Cc1cc(-c2cc(COc3ccc(C(F)(F)F)c(F)c3)ccn2)ccc1C(N)=O` [Example 65, 4-{4-[3-fluoro-4-(trifluoromethyl)phenoxymethyl]pyridin-2-yl}-2-methylbenzamide], the pEC50 was more than 7.60.

For `Cc1cc(-c2ccnc(COc3ccc4c(cnn4C)c3)c2)ccc1C(N)=O` [Example 87, 4-(2-{[(1-methyl-1H-indazol-5-yl)oxy]methyl}pyridin-4-yl)-2-methyl-benzamide], the pEC50 was 6.00 to 7.00.

Consider `Cc1cc(-c2ccnc(COc3ccc(C#N)c(F)c3)c2)ccc1C(N)=O` [Example 82, 4-[2-(4-cyano-3-fluorophenoxymethyl)pyridin-4-yl]-2-methylbenzamide], for which the pEC50 is 7.00 to 7.60.

As to `COc1ccc(OCc2ccnc(-c3ccc(C(N)=O)c(C)c3)c2)cc1F` [Example 62, 4-[4-(3-fluoro-4-methoxyphenoxymethyl)pyridin-2-yl]-2-methylbenzamide], the pEC50 is more than 7.60.

Take `Cc1cc(-c2cc(COc3ccc(C#N)c(F)c3)ccn2)ccc1C(=O)NCCN(C)C` [Example 80, 4-[4-(4-cyano-3-fluorophenoxymethyl)pyridin-2-yl]-N-[2-(dimethylamino)ethyl]-2-methylbenzamide]: the pEC50 was more than 7.60.

On to `Cc1cc(-c2cncc(COc3cc(F)cc(F)c3)c2)ccc1C(N)=O` [Example 93, 4-[5-(3,5-difluorophenoxymethyl)pyridin-3-yl]-2-methylbenzamide], for which the pEC50 is 6.00 to 7.00.

As to `Cc1cc(-c2cc(COc3ccc4c(c3)OCC4)ccn2)ccc1C(N)=O` [Example 63, 4-{4-[(2,3-dihydro-1-benzofuran-6-yloxy)methyl]pyridin-2-yl}-2-methylbenzamide], the pEC50 was 6.00 to 7.00.

On to `Cc1cc(-c2cc(COc3ccccc3C(F)(F)F)ccn2)ccc1C(N)=O` [Example 3, 4-{4-[2-(trifluoromethyl)phenoxymethyl]pyridin-2-yl}-2-methyl benzamide], for which the pEC50 is 6.00 to 7.00.

Regarding `Cc1cc(-c2cc(COc3ccc(C#N)c(F)c3F)ccn2)ccc1C(N)=O` [Example 9, 4-[4-(4-cyano-2,3-difluorophenoxymethyl)pyridin-2-yl]-2-methylbenzamide], the pEC50 is 6.00 to 7.00.

Turning to `Cc1ccc(OCc2ccnc(-c3ccc(C(N)=O)c(C)c3)c2)cc1` [Example 36, 4-[4-(4-methylphenoxymethyl)pyridin-2-yl]-2-methylbenzamide], the pEC50 is 6.00 to 7.00.

On to `CCCc1ccccc1OCc1ccnc(-c2ccc(C(N)=O)c(C)c2)c1` [Example 23, 4-[4-(2-propylphenoxymethyl)pyridin-2-yl]-2-methyl benzamide], for which the pEC50 was more than 7.60.

As to `Cc1cc(-c2cncc(COc3cc(F)cc(C#N)c3)c2)ccc1C(N)=O` [Example 92, 4-[5-(3-cyano-5-fluorophenoxymethyl)pyridin-3-yl]-2-methylbenzamide], the pEC50 is less than 6.00.

For the molecule `COc1ccc(OCc2ccnc(-c3ccc(C(N)=O)c(C)c3)c2)cc1` [Example 30, 4-[4-(4-methoxyphenoxymethyl)pyridin-2-yl]-2-methylbenzamide], the pEC50 is 6.00 to 7.00.

For the molecule `COc1cc(OCc2ccnc(-c3ccc(C(N)=O)c(C)c3)c2)ccc1F` [Example 61, 4-[4-(4-fluoro-3-methoxyphenoxymethyl)pyridin-2-yl]-2-methylbenzamide], the pEC50 was more than 7.60.

In the case of `COc1cc(OCc2cncc(-c3ccc(C(N)=O)c(C)c3)c2)ccc1C#N` [Example 94, 4-[5-(4-cyano-3-methoxyphenoxymethyl)pyridin-3-yl]-2-methylbenzamide], the pEC50 was 6.00 to 7.00.

In the case of `Cc1cc(-c2cc(COc3ccc(F)c(C#N)c3)ccn2)ccc1C(N)=O` [Example 7, 4-[4-(3-cyano-4-fluorophenoxymethyl)pyridin-2-yl]-2-methylbenzamide], the pEC50 is 6.00 to 7.00.

On to `Cc1cc(-c2cc(COc3cc(F)cc(C4CC4)c3)ccn2)ccc1C(N)=O` [Example 70, 4-[4-(3-cyclopropyl-5-fluorophenoxymethyl)pyridin-2-yl]-2-methylbenzamide], for which the pEC50 was more than 7.60.

Consider `Cc1cc(-c2ccnc(COc3ccc(C#N)c(F)c3F)c2)ccc1C(N)=O` [Example 84, 4-[2-(4-cyano-2,3-difluorophenoxymethyl)pyridin-4-yl]-2-methylbenzamide], for which the pEC50 is 6.00 to 7.00.

Turning to `N#Cc1ccc(OCc2ccnc(-c3ccc(C(N)=O)c(Cl)c3)c2)cc1F` [Example 77, 4-[4-(4-cyano-3-fluorophenoxymethyl)pyridin-2-yl]-2-chlorobenzamide], the pEC50 was 7.00 to 7.60.

`Cc1cc(-c2cc(COc3ccccc3)ccn2)ccc1C(N)=O` [Example 25, 4-[4-(phenoxymethyl)pyridin-2-yl]-2-methylbenzamide]: the pEC50 was 6.00 to 7.00.

Consider `Cc1cc(-c2cc(COc3cccc(CC#N)c3)ccn2)ccc1C(N)=O` [Example 73, 4-{4-[3-(cyanomethyl)phenoxymethyl]pyridin-2-yl}-2-methylbenzamide], for which the pEC50 is 6.00 to 7.00.

With `Cc1cc(-c2ccnc(COc3ccc(C#N)c(F)c3)n2)ccc1C(N)=O` [Example 103, 4-[2-(4-cyano-3-fluorophenoxymethyl)pyrimidin-4-yl]-2-methylbenzamide], the pEC50 is 6.00 to 7.00.

With `Cc1cc(-c2cncc(COc3ccc(C(F)(F)F)cc3)c2)ccc1C(N)=O` [Example 90, 4-{5-[4-(trifluoromethyl)phenoxymethyl]pyridin-3-yl}-2-methylbenzamide], the pEC50 is 7.00 to 7.60.

With `Cc1cc(-c2cc(COc3ccc([N+](=O)[O-])cc3)ccn2)ccc1C(N)=O` [Example 33, 4-[4-(4-nitrophenoxymethyl)pyridin-2-yl]-2-methylbenzamide], the pEC50 was more than 7.60.

`Cc1ccc(OCc2ccnc(-c3ccc(C(N)=O)c(C)c3)c2)cc1F` [Example 8, 4-[4-(3-fluoro-4-methylphenoxymethyl)pyridin-2-yl]-2-methylbenzamide]: the pEC50 is 6.00 to 7.00.

`Cc1cc(-c2cc(COc3cccc4c3CCC4=O)ccn2)ccc1C(N)=O` [Example 31, 4-(4-{[(1-oxo-2,3-dihydro-1H-inden-4-yl)oxy]methyl}pyridin-2-yl)-2-methylbenzamide]: the pEC50 is 6.00 to 7.00.

Turning to `Cc1cc(-c2cncc(COc3ccc4cnn(C)c4c3)c2)ccc1C(N)=O` [Example 95, 4-(5-{[(1-methyl-1H-indazol-6-yl)oxy]methyl}pyridin-3-yl)-2-methylbenzamide], the pEC50 was less than 6.00.

`COc1cc(Cl)ccc1OCc1ccnc(-c2ccc(C(N)=O)c(C)c2)c1` [Example 51, 4-[4-(4-chloro-2-methoxyphenoxymethyl)pyridin-2-yl]-2-methylbenzamide]: the pEC50 is 7.00 to 7.60.

Take `Cc1cc(-c2cc(COc3ccc4c(c3)CCO4)ccn2)ccc1C(N)=O` [Example 64, 4-{4-[(2,3-dihydro-1-benzofuran-5-yloxy)methyl]pyridin-2-yl}-2-methylbenzamide]: the pEC50 was more than 7.60.

In the case of `Cc1ccccc1OCc1ccnc(-c2ccc(C(N)=O)c(C)c2)c1` [Example 46, 4-[4-(2-methylphenoxymethyl)pyridin-2-yl]-2-methylbenzamide], the pEC50 is 6.00 to 7.00.

In the case of `COc1cc(OCc2ccnc(-c3ccc(C(N)=O)c(C)c3)c2)ccc1C#N` [Example 55, 4-[4-(4-cyano-3-methoxyphenoxymethyl)pyridin-2-yl]-2-methylbenzamide], the pEC50 is more than 7.60.

Take `Cc1cc(-c2cccc(COc3cccc(C(F)(F)F)c3)n2)ccc1C(N)=O` [Example 102, 4-{6-[3-(trifluoromethyl)phenoxymethyl]pyridin-2-yl}-2-methylbenzamide]: the pEC50 was less than 6.00.

On to `Cc1cc(-c2cc(COc3cc(F)c(C#N)c(F)c3)ccn2)ccc1C(N)=O` [Example 10, 4-[4-(4-cyano-3,5-difluorophenoxymethyl)pyridin-2-yl]-2-methylbenzamide], for which the pEC50 is 7.00 to 7.60.

Turning to `COc1cccc(OCc2ccnc(-c3ccc(C(N)=O)c(C)c3)c2)c1` [Example 39, 4-[4-(3-methoxyphenoxymethyl)pyridin-2-yl]-2-methylbenzamide], the pEC50 was 6.00 to 7.00.

Take `Cc1cc(-c2cc(COc3cccc(CCO)c3)ccn2)ccc1C(N)=O` [Example 16, 4-{4-[3-(2-hydroxyethyl)phenoxymethyl]pyridin-2-yl}-2-methylbenzamide]: the pEC50 is 6.00 to 7.00.

For the molecule `Cc1cc(-c2cc(COc3ccc(C#N)cc3)ccn2)ccc1C(N)=O` [Example 26, 4-[4-(4-cyanophenoxymethyl)pyridin-2-yl]-2-methylbenzamide], the pEC50 is 7.00 to 7.60.

For `Cc1cc(-c2cc(COc3cc(F)c(Cl)c(F)c3)ccn2)ccc1C(N)=O` [Example 56, 4-[4-(4-chloro-3,5-difluorophenoxymethyl)pyridin-2-yl]-2-methylbenzamide], the pEC50 is more than 7.60.

In the case of `COc1cncc(OCc2ccnc(-c3ccc(C(N)=O)c(C)c3)c2)c1` [Example 74, 4-(4-{[(5-methoxypyridin-3-yl)oxy]methyl}pyridin-2-yl)-2-methylbenzamide], the pEC50 is 6.00 to 7.00.

As to `NC(=O)c1ccc(-c2cc(COc3ccc(C(F)(F)F)cc3)ccn2)cc1C(F)(F)F` [Example 78, 4-{4-[4-(trifluoromethyl)phenoxymethyl]pyridin-2-yl}-2-(trifluoromethyl)benzamide], the pEC50 is 7.00 to 7.60.
